# Results reported in patent US20160263081A1, “ANTIPARASITIC AGENT” (NAI INC., priority 2013, published 2016).
# Several values for one entry are separate records, joined by “and”; a condition that tells them apart may be missing. Equal values may be shown once. Read-outs that look alike come from different tables or passages of the source.
# Experiments:
# [1] = tested on: L. major promastigote; conditions: cited from earlier work
# [2] = tested on: L. donovani promastigote; conditions: cited from earlier work
# [3] = tested on: T. cruzi amastigote; conditions: cited from earlier work
# [4] = molecular target: Ascaris suum complex II (Ascaris suum, UniProt O44074+P92506+P92507); conditions: A. suum complex II; cited from earlier work
# [5] = tested on: L. tarentolae complex II SDH activity; experiment: Succinate dehydrogenase (SDH) reaction with PMS and MTT, L. tarentolae complex II; type: biochemical, Leishmania tarentolae; conditions: 50 μM siccanin
# Procedure: (§1) In order to estimate the inhibitory mechanism of siccanin against complex II, the inhibitory pattern was determined by Lineweaver-Burk plot using succinate and quinone as the substrates. As samples for measurement, nematode complex II from A. suum and complex II from L. tarentolae, which is an easy-to-handle trypanosomatid, were used. […] The SDH activity is catalyzed by only subunits Fp and Ip of complex II and the quinone-binding domain is not essential for the reaction.
# [6] = tested on: D. immitis complex II; type: biochemical, Dirofilaria immitis
# [7] = molecular target: A. simplex complex II (Anisakis simplex, UniProt A0A0M3JRB2+A0A0M3KB13+A0A3P6RGD8); experiment: biochemical
# A. simplex complex II, sequence (A0A0M3JRB2 24-279): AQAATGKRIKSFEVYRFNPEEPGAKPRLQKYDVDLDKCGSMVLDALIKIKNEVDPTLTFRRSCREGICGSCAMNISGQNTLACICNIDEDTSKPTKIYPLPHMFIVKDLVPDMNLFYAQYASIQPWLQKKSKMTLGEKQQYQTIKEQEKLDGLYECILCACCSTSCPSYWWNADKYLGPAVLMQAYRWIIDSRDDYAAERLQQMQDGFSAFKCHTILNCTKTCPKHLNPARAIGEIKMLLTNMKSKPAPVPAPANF
# A. simplex complex II, sequence (A0A3P6RGD8 1-99): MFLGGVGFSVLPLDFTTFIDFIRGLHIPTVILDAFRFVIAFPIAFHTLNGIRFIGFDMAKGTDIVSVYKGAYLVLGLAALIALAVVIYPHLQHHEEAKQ
# A. simplex complex II, sequence (A0A0M3KB13 31-157): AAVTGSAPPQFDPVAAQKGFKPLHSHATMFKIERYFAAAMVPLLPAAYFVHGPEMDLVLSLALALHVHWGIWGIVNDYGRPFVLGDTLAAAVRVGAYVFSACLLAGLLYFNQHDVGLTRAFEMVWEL
# A. simplex complex II, sequence (A0A0M3KCD2 1-354 partner): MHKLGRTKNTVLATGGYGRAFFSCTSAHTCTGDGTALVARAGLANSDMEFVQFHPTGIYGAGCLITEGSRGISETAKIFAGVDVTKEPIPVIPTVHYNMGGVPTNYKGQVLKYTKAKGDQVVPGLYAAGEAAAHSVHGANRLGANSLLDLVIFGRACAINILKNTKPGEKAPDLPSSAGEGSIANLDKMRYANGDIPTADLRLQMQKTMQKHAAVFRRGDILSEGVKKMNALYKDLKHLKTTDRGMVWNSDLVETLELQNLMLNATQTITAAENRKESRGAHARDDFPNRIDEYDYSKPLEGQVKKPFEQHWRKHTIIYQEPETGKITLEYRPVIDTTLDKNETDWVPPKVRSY
# [8] = molecular target: T1, A. suum respiratory chain complex II (Ascaris suum, UniProt O44074+P92506+P92507); experiment: Lineweaver-Burk inhibition pattern, A. suum complex II; type: biochemical; conditions: for Ki: A. suum SQR activity, for quinone (decylubiquinone)
# T1 construct: measured using A. suum imago complex II; from tissue; host or cells: adult (imago) Ascaris suum
# T1 sequence (Q33862 19-645 partner): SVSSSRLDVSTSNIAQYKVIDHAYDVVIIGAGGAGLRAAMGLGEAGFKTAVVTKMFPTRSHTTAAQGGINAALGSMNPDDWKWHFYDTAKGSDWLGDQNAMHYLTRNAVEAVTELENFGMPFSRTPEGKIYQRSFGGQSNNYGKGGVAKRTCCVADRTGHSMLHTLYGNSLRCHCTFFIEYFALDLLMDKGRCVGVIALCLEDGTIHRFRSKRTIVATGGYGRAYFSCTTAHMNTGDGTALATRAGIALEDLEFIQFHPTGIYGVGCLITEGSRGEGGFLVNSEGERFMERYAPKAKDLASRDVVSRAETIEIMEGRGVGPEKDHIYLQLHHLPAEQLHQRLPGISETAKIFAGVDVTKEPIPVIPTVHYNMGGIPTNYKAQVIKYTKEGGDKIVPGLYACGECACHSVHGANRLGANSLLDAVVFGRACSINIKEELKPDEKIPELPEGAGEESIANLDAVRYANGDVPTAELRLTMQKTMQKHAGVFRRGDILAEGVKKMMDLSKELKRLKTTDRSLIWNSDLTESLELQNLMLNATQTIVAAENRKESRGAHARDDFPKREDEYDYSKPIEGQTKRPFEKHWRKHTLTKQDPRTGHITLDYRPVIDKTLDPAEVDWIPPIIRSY
# T1 sequence (O44074 22-282): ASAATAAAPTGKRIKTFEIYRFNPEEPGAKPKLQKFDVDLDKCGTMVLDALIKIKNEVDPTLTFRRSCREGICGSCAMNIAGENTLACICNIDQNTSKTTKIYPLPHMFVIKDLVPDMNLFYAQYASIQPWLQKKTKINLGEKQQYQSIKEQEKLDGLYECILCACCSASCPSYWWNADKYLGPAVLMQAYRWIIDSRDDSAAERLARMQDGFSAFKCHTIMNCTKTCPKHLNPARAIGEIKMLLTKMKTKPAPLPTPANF
# T1 sequence (P92506 32-188): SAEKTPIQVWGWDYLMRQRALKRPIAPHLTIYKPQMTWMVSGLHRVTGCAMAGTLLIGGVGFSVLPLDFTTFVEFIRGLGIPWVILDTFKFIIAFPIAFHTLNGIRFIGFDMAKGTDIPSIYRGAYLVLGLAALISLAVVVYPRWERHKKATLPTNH
# T1 sequence (P92507 26-156): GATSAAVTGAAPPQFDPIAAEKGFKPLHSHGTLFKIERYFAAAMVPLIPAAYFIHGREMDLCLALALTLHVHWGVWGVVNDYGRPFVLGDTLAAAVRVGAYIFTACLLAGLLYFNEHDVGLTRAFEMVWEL
# Procedure: FIG. 1 is a graph which represents the inhibition pattern of siccanin against A. suum respiratory chain complex II.
# as §1
# [9] = tested on: T. b. brucei complex II; type: biochemical, Trypanosoma brucei brucei
# [10] = molecular target: T1, A. suum respiratory chain complex II; experiment: biochemical
# [11] = tested on: D. immitis microfilariae; type: cell-based, Dirofilaria immitis
# [12] = tested on: P. falciparum erythrocytic stage; experiment: P. falciparum proliferation by LDH assay; type: cell-based, Plasmodium falciparum; conditions: read-out: Celluler IC50
# Excerpt: (§2) Siccanin inhibits trypanosomatid and plasmodia complex II with IC50 values on the nM order. Based on this fact, the present inventors further measured the impact of siccanin on the proliferation of parasites (Table 3). The species of the organisms used in the present study were: nonpathogenic leishmanial protozoan L. tarentolae promastigote (insect form), cutaneous leishmaniasis pathogen L. major promastigote (insect form), visceral leishmaniasis pathogen L. donovani promastigote (insect form), related species of African sleeping sickness pathogen T. b. brucei bloodstream form, Chagas disease pathogen T. cruzi amastigote (cell form), and plasmodia P. falciparum erythrocytic stage (Table 3). T. b. brucei bloodstream form and T. cruzi amastigote correspond to the stages found in mammalian hosts and can be used as target forms in drug treatments for African trypanosomiasis and Chagas disease.
# (§3) In the presence of 0.05 to 50 μM siccanin, the proliferation of L. tarentolae promastigote, L. donovani promastigote, L. major promastigote, and T. brucei bloodstream form was measured by Alamar Blue method. […] The growth inhibitory effect of siccanin on T. cruzi was evaluated by counting the T. cruzi amastigote population that infected mouse cells. As compared with DMSO control, the number of the protozoa decreased by 50% in the presence of 10 μM siccanin. […]
# [13] = tested on: T. mentagrophytes respiratory chain complex II; conditions: cited from earlier work
# [14] = tested on: Pseudomonas aeruginosa complex II; conditions: cited from earlier work
# [15] = tested on: L. tarentolae complex II; type: biochemical, Leishmania tarentolae
# [16] = tested on: T. cruzi complex II; type: biochemical, Trypanosoma cruzi
# [17] = tested on: H. contortus complex II; type: biochemical, Haemonchus contortus
# [18] = tested on: L. major promastigote; experiment: Proliferation by Alamar Blue method, L. major promastigote; type: cell-based; conditions: Leishmania major, read-out: Celluler IC50
# Excerpt: as §2, §3
# [19] = molecular target: Escherichia coli complex II (Escherichia coli, UniProt P07014+P0AC44+P69054); conditions: cited from earlier work
# Escherichia coli complex II, sequence (P0AC41 whole entry partner): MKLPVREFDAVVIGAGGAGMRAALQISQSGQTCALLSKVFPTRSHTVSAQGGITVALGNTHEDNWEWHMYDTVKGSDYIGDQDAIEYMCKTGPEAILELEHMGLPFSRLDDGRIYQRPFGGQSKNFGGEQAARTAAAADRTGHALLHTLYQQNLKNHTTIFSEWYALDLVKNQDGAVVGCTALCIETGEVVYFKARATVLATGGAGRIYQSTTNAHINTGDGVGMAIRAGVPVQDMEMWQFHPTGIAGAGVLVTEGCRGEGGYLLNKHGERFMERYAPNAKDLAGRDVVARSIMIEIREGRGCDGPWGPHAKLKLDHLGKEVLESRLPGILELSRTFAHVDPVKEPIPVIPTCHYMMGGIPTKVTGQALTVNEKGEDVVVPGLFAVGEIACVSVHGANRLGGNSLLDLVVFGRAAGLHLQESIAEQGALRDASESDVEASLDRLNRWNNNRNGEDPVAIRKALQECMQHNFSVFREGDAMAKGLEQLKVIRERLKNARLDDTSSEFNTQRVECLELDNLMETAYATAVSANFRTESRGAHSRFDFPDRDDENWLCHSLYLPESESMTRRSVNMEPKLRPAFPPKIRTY
# Escherichia coli complex II, sequence (P07014 whole entry): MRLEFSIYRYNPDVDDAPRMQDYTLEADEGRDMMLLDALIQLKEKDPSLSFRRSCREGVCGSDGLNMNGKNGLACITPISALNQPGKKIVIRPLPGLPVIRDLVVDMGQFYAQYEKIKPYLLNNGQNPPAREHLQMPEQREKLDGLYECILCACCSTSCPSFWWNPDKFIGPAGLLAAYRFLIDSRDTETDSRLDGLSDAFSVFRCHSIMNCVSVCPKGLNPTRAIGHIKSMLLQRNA
# Escherichia coli complex II, sequence (P69054 whole entry): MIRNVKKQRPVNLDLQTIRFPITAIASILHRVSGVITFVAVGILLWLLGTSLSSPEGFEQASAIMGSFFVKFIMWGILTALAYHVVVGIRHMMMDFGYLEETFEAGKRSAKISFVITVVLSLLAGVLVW
# Escherichia coli complex II, sequence (P0AC44 whole entry): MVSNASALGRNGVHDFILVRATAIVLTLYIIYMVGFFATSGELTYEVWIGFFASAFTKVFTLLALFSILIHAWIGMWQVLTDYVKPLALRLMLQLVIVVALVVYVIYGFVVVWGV
# [20] = molecular target: T2, pig complex II (Sus scrofa, UniProt A5GZW8+D0VWV4+Q007T0); conditions: Non-Patent Document 21; cited from earlier work
# T2 sequence (Q0QF01 43-664 partner): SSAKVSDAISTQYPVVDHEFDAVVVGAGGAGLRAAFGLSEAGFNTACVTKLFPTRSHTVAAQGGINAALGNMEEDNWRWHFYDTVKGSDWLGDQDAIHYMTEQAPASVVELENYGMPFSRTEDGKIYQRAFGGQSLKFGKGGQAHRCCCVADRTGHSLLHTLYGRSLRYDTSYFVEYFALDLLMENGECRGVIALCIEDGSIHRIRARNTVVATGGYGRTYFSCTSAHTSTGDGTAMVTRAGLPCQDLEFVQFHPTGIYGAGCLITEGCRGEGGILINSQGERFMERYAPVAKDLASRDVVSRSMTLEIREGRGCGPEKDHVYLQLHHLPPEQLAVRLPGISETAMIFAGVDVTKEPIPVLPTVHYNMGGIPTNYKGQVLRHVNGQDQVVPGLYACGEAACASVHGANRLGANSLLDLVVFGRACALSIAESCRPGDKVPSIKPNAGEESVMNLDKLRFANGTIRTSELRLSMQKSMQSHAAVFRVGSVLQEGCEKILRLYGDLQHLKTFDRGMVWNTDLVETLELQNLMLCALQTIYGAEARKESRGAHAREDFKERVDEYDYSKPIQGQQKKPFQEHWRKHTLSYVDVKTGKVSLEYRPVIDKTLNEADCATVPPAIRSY
# T2 sequence (Q007T0 29-280): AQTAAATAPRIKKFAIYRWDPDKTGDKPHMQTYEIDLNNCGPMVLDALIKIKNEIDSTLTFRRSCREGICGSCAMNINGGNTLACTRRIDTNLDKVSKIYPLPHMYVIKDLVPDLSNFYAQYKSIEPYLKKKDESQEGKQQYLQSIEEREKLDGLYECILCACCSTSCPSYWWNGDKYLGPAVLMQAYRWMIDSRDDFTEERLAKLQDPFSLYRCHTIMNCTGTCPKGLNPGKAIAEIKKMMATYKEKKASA
# T2 sequence (D0VWV4 30-169): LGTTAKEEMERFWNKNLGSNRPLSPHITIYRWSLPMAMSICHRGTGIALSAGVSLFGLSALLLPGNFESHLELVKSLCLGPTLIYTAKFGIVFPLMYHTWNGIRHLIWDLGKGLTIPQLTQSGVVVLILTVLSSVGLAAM
# T2 sequence (A5GZW8 57-159 limits assumed): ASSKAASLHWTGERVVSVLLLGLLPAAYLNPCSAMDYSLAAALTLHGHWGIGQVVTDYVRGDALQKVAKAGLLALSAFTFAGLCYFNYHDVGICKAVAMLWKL
# [21] = tested on: T. b. brucei bloodstream form; experiment: Proliferation by Alamar Blue method, T. b. brucei bloodstream form; type: cell-based; conditions: Trypanosoma brucei, read-out: Celluler IC50
# Excerpt: as §2, §3
# [22] = molecular target: T2, pig complex II; type: biochemical
# [23] = tested on: T. mentagrophytes mitochondria; conditions: cited from earlier work
# [24] = molecular target: rat complex II (Rattus norvegicus, UniProt P21913+Q641Z9+Q6PCT8); conditions: cited from earlier work
# [25] = molecular target: L. tarentolae respiratory chain complex II; experiment: Lineweaver-Burk inhibition pattern, L. tarentolae complex II; type: biochemical, Leishmania tarentolae; conditions: for Ki: L. tarentolae SQR activity, for quinone (ubiquinone 1)
# Procedure: FIG. 2 is a graph which represents the inhibition pattern of siccanin against L. tarentolae respiratory chain complex II.
# as §1
# [26] = molecular target: T3, A. suum complex II SDH activity (Ascaris suum, UniProt O44074+P92506+P92507); experiment: Succinate dehydrogenase (SDH) reaction with PMS and MTT, A. suum complex II; type: biochemical; conditions: 50 μM siccanin
# T3 construct: measured using A. suum imago complex II; from tissue; host or cells: adult (imago) Ascaris suum
# Procedure: as §1
# [27] = tested on: T. cruzi amastigote; experiment: Count of T. cruzi amastigotes infecting mouse cells; type: cell-based, Trypanosoma cruzi
# Excerpt: as §2, §3
# [28] = tested on: P. falciparum complex II; type: biochemical, Plasmodium falciparum
# [29] = tested on: L. tarentolae promastigote; experiment: Proliferation by Alamar Blue method, L. tarentolae promastigote; type: cell-based; conditions: Leishmania tarentolae, read-out: Celluler IC50
# Excerpt: as §2, §3
# [30] = tested on: T. mentagrophytes; conditions: glycol salicylate ointment containing 1% siccanin applied 3-8 days after infection, albino guinea pigs, N=20; cited from earlier work
# [31] = tested on: L. donovani promastigote; experiment: Proliferation by Alamar Blue method, L. donovani promastigote; type: cell-based; conditions: Leishmania donovani
# Excerpt: as §2, §3
# [32] = tested on: Trychophyton spp., Epidermophyton floccosum, and Microsporium gypseum; conditions: cited from earlier work
# [33] = complex II alone, read-out: Ki1
# [34] = complex of complex II and ubiquinone, read-out: Ki2
# [35] = A. suum complex II, Lineweaver-Burk plot
compound,measurement,setting,value
C[C@@H]1[C@H](O)[C@@H](C)/C=C/C=C/C=C/C=C/C=C/C=C/C=C/[C@H](O[C@@H]2O[C@H](C)[C@@H](O)[C@H](N)[C@@H]2O)C[C@@H]2O[C@](O)(C[C@@H](O)C[C@@H](O)[C@H](O)CC[C@@H](O)C[C@@H](O)CC(=O)O[C@H]1C)C[C@H](O)[C@H]2C(=O)O [Amphotericin B],IC50,[1],~0.043 µM
same,IC50,[2],~12 nM
O=C(Cn1ccnc1[N+](=O)[O-])NCc1ccccc1 [benznidazole],IC50,[3],~22 µM
CC(C)Oc1cccc(NC(=O)c2ccccc2C(F)(F)F)c1 [flutolanil],selectivity over pig complex II,[4],800 fold
CCCCCCCCCCCCCCCCOP(=O)([O-])OCC[N+](C)(C)C [miltefosine],IC50,[1],~13.1 µM
same,IC50,[2],~450 nM
CC1CS(=O)(=O)CCN1/N=C/c1ccc([N+](=O)[O-])o1 (stereo not shown) [nifurtimox],IC50,[3],~3.5 µM
Cc1cc(O)c2c(c1)O[C@@]1(C)CC[C@H]3C(C)(C)CCC[C@]34CO[C@@H]2[C@H]41 [siccanin],inhibition of SDH activity,[5],no inhibitory effects
same,Selectivity,[6],62391 fold
same,IC50,[6]; read-out: SQR IC50,13.8 nM
same,IC50,[7],11.2 nM
same,Selectivity,[7],76875 fold
same,Ki,[8]; [33],3 nM and 5.2 nM
same,Ki,[8]; [34],8.7 nM and 9.9 nM
same,inhibitory pattern for quinone,[8]; [35],mixed inhibition
same,inhibitory pattern for succinate,[8]; [35],non-competitive inhibition
same,Selectivity,[9],3189 fold
same,IC50,[9]; read-out: SQR IC50,370 nM
same,IC50,[10],5.7 nM
same,Selectivity,[10],"180,000 fold"
same,selectivity relative to the selectivity of flutolanil,[10],about 20 fold
same,Motility (%),"[11]; 5 μM, 0 hr",100%
same,Motility (%),"[11]; 5 μM, 24 hr",75%
same,Motility (%),"[11]; 5 μM, 48 hr",50%
same,Motility (%),"[11]; 50 μM, 0 hr",25%
same,Motility (%),"[11]; 50 μM, 24 hr",0%
same,Motility (%),"[11]; 50 μM, 48 hr",0%
same,IC50,[12]; Plasmodium falciparum,15.5 µM
same,IC50,[12],16 µM
same,IC50,[13],87 nM
same,IC50,[14]; Pseudomonas aeruginosa complex II,870 nM
same,inhibition mode against quinone,[14]; membrane fraction of Pseudomonas aeruginosa,mixed inhibition
same,Selectivity,[15],4532 fold
same,IC50,[15]; read-out: SQR IC50,190 nM
same,Selectivity,[16],718 fold
same,IC50,[16]; read-out: SQR IC50,1200 nM
same,Selectivity,[17],47308 fold
same,IC50,[17]; read-out: SQR IC50,18.2 nM
same,IC50,[18],13 µM
same,IC50,[19],268 µM
same,IC50,[20],861 µM
same,IC50,[21],8.3 µM
same,Selectivity,[22],1
same,inhibition of NADH- or ascorbate-dependant oxygen consumption,[23],does not inhibit
same,IC50,[24],9.3 µM
same,Ki,[25]; [33],39 nM
same,Ki,[25]; [34],102 nM
same,inhibitory pattern for quinone,"[25]; L. tarentolae complex II, Lineweaver-Burk plot",mixed inhibition
same,inhibition of SDH activity,[26],no inhibitory effects
same,decrease in the number of the protozoa compared with DMSO control,[27]; 10 μM siccanin,50%
same,IC50,"[27]; Trypanosoma cruzi, T. cruzi amastigote in mouse cells, read-out: Celluler IC50",10 µM
same,IC50,[28],98 nM
same,Selectivity,[28],8675
same,IC50,[29],4.4 µM
same,subjects whose skin was completely cured,[30],85-100%
same,IC50,[31]; read-out: Celluler IC50,700 nM
same,IC50,[31]; read-out: IC50,700 nM
same,MIC,[32],0.6 to 6.3 µg/mL
ivermectin [reference compound],Motility (%),"[11]; 5 μM, 0 hr",100%
same,Motility (%),"[11]; 5 μM, 24 hr",75%
same,Motility (%),"[11]; 5 μM, 48 hr",50%
same,Motility (%),"[11]; 50 μM, 0 hr",100%
same,Motility (%),"[11]; 50 μM, 24 hr",50%
same,Motility (%),"[11]; 50 μM, 48 hr",50%
